The text below walks through data of PubChem BioAssay (NCI).

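Growth conditions: 96-well plates. Treatment: test compound, 48 hours, 5 concentrations. Analysis: linear interpolation between bracketing concentrations; unreached endpoints set to highest concentration. TGI is the concentration that stops growth completely.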 Where only a bound is given, the exact number is not on record here.

Some test systems named below: A549 NSCLC; SN12C renal; UO-31 renal; KM12 colon; MDA-N; HOP-92 NSCLC; HL-60(TB) leukemia; HCT-116 colon; T-47D breast; OVCAR-5 ovarian; PC-3 prostate; ACHN renal; RXF 393 renal; DU-145 prostate; SR leukemia.
Test in all cases: NCI anticancer screen, dose series, 48 h

Consider `COC(=O)C1=CCC[C@H]2[C@@]1(COC(C)=O)CC[C@@H](C)[C@]2(C)CC(=O)c1ccoc1`, for which the TGI in the test with A549 NSCLC is over 50 µM; in the test on SN12C renal, over 50 µM; in the test with UO-31 renal, over 50 µM; with KM12 colon it was over 50 µM; in the test on MDA-N, over 50 µM; in the test with HOP-92 NSCLC, 37.8 µM. Besides, the TGI was 24.5 µM in the test on HL-60(TB) leukemia; 30.4 µM in the test with HCT-116 colon; 35.7 µM in the test on T-47D breast; over 50 µM with OVCAR-5 ovarian; over 50 µM with PC-3 prostate; over 50 µM in the test with ACHN renal. The TGI in the test on RXF 393 renal and in the test with DU-145 prostate was over 50 µM throughout.
As for `O=C(c1ccsc1)c1nccc2c1cnc1ccccc12`, the TGI in the test on A549 NSCLC, in the test on SN12C renal, in the test with UO-31 renal, in the test on KM12 colon, with MDA-N and with HOP-92 NSCLC was over 100 µM in each case. Further, the TGI was 6.65 µM in the test on HL-60(TB) leukemia; over 100 µM in the test with HCT-116 colon; over 100 µM with T-47D breast; over 100 µM in the test with OVCAR-5 ovarian; over 100 µM in the test on PC-3 prostate; over 100 µM in the test on ACHN renal. Also, the TGI in the test on RXF 393 renal and in the test on DU-145 prostate was over 100 µM in each case.
With `COc1ccc(C(=O)c2[nH]c(Nc3cc(C)ccn3)c(C(=S)Nc3ccccc3)c2N)cc1`, the TGI is over 100 µM in the test with A549 NSCLC; 39.2 µM with SN12C renal; 57.4 µM in the test on UO-31 renal; 39.2 µM in the test with KM12 colon; 56.2 µM with MDA-N; over 100 µM with SR leukemia. In addition, the TGI in the test with HL-60(TB) leukemia was 64 µM; in the test on HCT-116 colon it was 50.6 µM; with T-47D breast it was over 100 µM; with OVCAR-5 ovarian, 74.1 µM; in the test with PC-3 prostate, over 100 µM; with ACHN renal it was 97.4 µM. The TGI in the test with RXF 393 renal is 38.4 µM; in the test on DU-145 prostate, over 100 µM.
Turning to `CC1=CC(=O)c2ccc3c4ccccc4n(C)c3c2C1=O`, the TGI is over 100 µM in the test on A549 NSCLC; over 100 µM with SN12C renal; over 100 µM in the test on UO-31 renal; over 100 µM in the test on KM12 colon; 33.1 µM in the test with MDA-N; over 100 µM in the test on HOP-92 NSCLC. The TGI with HL-60(TB) leukemia was over 72.3 µM; with HCT-116 colon, over 100 µM; in the test on T-47D breast it was over 100 µM; in the test on OVCAR-5 ovarian, over 100 µM; with ACHN renal it was over 100 µM; with RXF 393 renal it was over 100 µM. Also, the TGI with DU-145 prostate is over 100 µM.
For the compound `CCN1C(c2ccccc2)=CC(c2ccccc2)(C(Cl)(Cl)Cl)C=C1c1ccccc1`, the TGI was over 100 µM in the test with A549 NSCLC; over 100 µM in the test on SN12C renal; over 100 µM with UO-31 renal; 16.2 µM with KM12 colon; over 100 µM in the test on MDA-N; 25.8 µM in the test on HOP-92 NSCLC. Besides, the TGI was 2.73 µM in the test with HL-60(TB) leukemia; 29.3 µM in the test on HCT-116 colon; 2.29 µM with T-47D breast; 79 µM in the test with OVCAR-5 ovarian; over 100 µM with PC-3 prostate; over 100 µM with ACHN renal. Further, the TGI in the test with RXF 393 renal is 72.2 µM; in the test on DU-145 prostate, over 100 µM.
As to `COc1ccc(-n2c(C)nc3ccc(NC4OC(COC(C)=O)C(OC(C)=O)C(OC(C)=O)C4OC(C)=O)cc3c2=O)cc1` (stereo not drawn), the TGI in the test with SN12C renal is over 100 µM; in the test on UO-31 renal it was over 100 µM; in the test with KM12 colon it was over 100 µM; with MDA-N, over 100 µM; with SR leukemia, over 100 µM; in the test on HL-60(TB) leukemia, 48.7 µM. For the same compound, the TGI in the test on HCT-116 colon is 46.5 µM; in the test with T-47D breast, over 100 µM; in the test with OVCAR-5 ovarian, over 100 µM; in the test with PC-3 prostate it was over 100 µM; in the test with ACHN renal, over 100 µM; with RXF 393 renal, 87.4 µM. The same compound yielded a TGI in the test with DU-145 prostate of over 100 µM.
Turning to `COc1ccc(-n2c(C)nc3ccc(NC4OCC(OC(C)=O)C(OC(C)=O)C4OC(C)=O)cc3c2=O)cc1` (stereo not drawn), the TGI in the test with SN12C renal, in the test with UO-31 renal, with KM12 colon, in the test with MDA-N, with SR leukemia and in the test with HL-60(TB) leukemia was over 100 µM throughout. For the same compound, the TGI with HCT-116 colon, with T-47D breast, in the test on OVCAR-5 ovarian, in the test with PC-3 prostate, in the test with ACHN renal and in the test on RXF 393 renal was over 100 µM throughout. In addition, the TGI in the test with DU-145 prostate was over 100 µM.
Consider `COc1cc2c(cc1OCCCN1CCOCC1)N=C[C@@H]1CCCN1C2=O`, for which the TGI in the test with A549 NSCLC was over 100 µM; in the test with SN12C renal, over 100 µM; with UO-31 renal it was over 100 µM; in the test on KM12 colon, 43.4 µM; in the test with MDA-N, 97.5 µM; in the test on SR leukemia, 39.8 µM. In addition, the TGI with HOP-92 NSCLC is 7.4 µM; in the test with HL-60(TB) leukemia, 29.6 µM; with HCT-116 colon it was 54.3 µM; in the test with OVCAR-5 ovarian, 59.9 µM; in the test on PC-3 prostate, 72.4 µM; in the test with ACHN renal it was 92 µM. Further, the results for the TGI with RXF 393 renal and in the test with DU-145 prostate were 8.13 µM and 76.9 µM, respectively.
For `COc1ccc2c(c1)C1Oc3ccccc3CC1CO2` (stereo not drawn), the TGI in the test with A549 NSCLC was over 100 µM; with SN12C renal it was over 100 µM; in the test on UO-31 renal, 75.8 µM; in the test on KM12 colon, over 100 µM; with MDA-N, over 100 µM; in the test with HOP-92 NSCLC, 87 µM. For the same compound, the TGI is 50 µM in the test on HL-60(TB) leukemia; over 100 µM in the test on HCT-116 colon; over 100 µM in the test with T-47D breast; over 100 µM in the test with OVCAR-5 ovarian; over 100 µM in the test on PC-3 prostate; over 100 µM with ACHN renal. Further, the TGI is 88.9 µM with RXF 393 renal and over 100 µM in the test on DU-145 prostate.
